pKi: −log10 of the molar value.
Columns and labels:
Type in all cases: biochemical
[1] = tested on: antibody (elicited against pyridoxal/p-nitrophenylalanine Schiff base analog hapten) which resulted in the highest rate of amino acid production in the …; test: Inhibition by hapten of the transamination between p-nitrophenylpyruvic acid and pyridoxamine; settings: 100 μM of the hapten
Procedure: (§1) A hapten was formed by first reacting pyridoxal with p-nitrophenylalanine in the presence of aqueous NaBH4 at pH 8.5 to form a stable Schiff base analog. The latter was then treated with thiourea in 48% HBr followed by aqueous ammonium hydroxide to form the disulfide dimer, which was then reduced and subjected to disulfide exchange with a carrier protein to yield a hapten-protein conjugate in which the hapten was the Schiff base analog.
(§2) Antibodies were elicited against the conjugate in accordance with conventional procedures, and seven antibodies specifically binding to the hapten itself were selected. Inhibition tests were conducted in which p-nitrophenylalanine and pyridoxamine individually were contacted with the antibodies to determine whether or not binding between the antibodies and the hapten-protein conjugate was inhibited in an ELISA assay.
(§3) The same seven antibodies were then used in the transamination reaction between p-nitrophenylpyruvic acid and pyridoxamine to form p-nitrophenylalanine. Reactions were performed in two separate buffer solutions, using 1 mM each of p-nitrophenylpyruvic acid and pyridoxamine, 10 μM antibody (IgG) and 250 μM m-nitrobenzylalcohol as an internal standard in each case. The first buffer solution consisted of 10 mM phosphate and 150 mM NaCl at pH 7.5, and the second consisted of 100 mM imidazole and 100 mM NaCl at pH 7.0.

[2] = tested on: antibody (elicited against pyridoxal/p-nitrophenylalanine Schiff base analog hapten) which enhanced the bimolecular condensation reaction; test: as above; settings: 100 μM of the hapten
Procedure: as §1, §2, §3

[3] = tested on: monoclonal antibody 7G12-A10-G1-A12 elicited against N-methyl mesoporphyrin (NMMP); test: Inhibition of antibody-catalyzed chelation of metal ions by mesoporphyrin IX; settings: inhibition of the antibody's catalytic ability (metal chelation by mesoporphyrin IX); read-out: inhibition constant (Ki)
Source text: N-Methyl mesoporphyrin (NMMP), a commercially available species obtained from Porphyrin Products, Logan, Utah, having the formula [drawing 3] was conjugated to a carrier protein by treatment of the NMMP with N-hydroxysuccinimide (NHS) and dicyclohexylcarbodiimide, followed by addition of the resulting NHS ester to a solution of the protein. Monoclonal antibodies were elicited in accordance with conventional procedures known to those skilled in the art, and purified by Protein A affinity chromatography.
The inhibition constant (Ki) for the iron(III)mesoporphyrin was less than 10 nM. The term "mesoporphyrin" is used here as an abbreviation for the more complete term "mesoporphyrin IX," and the abbreviations "MP" and "MPIX" are used interchangeably to refer to this species. Thus, "Fe(III)-mesoporphyrin," "iron(III)mesoporphyrin" and "Fe(III)MPIX" are equivalent, and "N-methyl nesoporphyrin," "NMMP" and "N-MeMPIX" and likewise equivalent.

[4] = tested on: antibody 7G12-A10-G1-A12-mesohemin (Fe(III)mesoporphyrin) complex; test: Peroxidation of chromogenic peroxidase substrates with H2O2 catalyzed by antibody-mesohemin complex
Procedure: In further experiments, this antibody was used in the presence of H2 O2 to catalyze the oxidation of the following group of typical chromogenic peroxidase substrates: [drawing 7] Reaction mixtures contained 1 mM reducing substrate, 5 mM hydrogen peroxide, 0.5 mM Fe(III)mesoporphyrin chloride (mesohemin), 0.5% w/v Triton X-100, 4% v/v dimethyl sulfoxide (DMSO), and 90 mM tris acetate, pH 8.0, and were incubated at 10° C. Antibody samples contained 0.2 mg/mL (1.3 μM) protein.
The monitored wavelength and Δε value for each reaction, and the plot in FIG. 2 showing the corresponding absorption curves for each comparison are as follows:
The rate of o-dianisidine oxidation was examined at several o-dianisidine concentrations, ranging from 0.05 mM to 2.5 mM, using 10 mM H2 O2 in each case and other reaction conditions as described above. The initial rate of peroxidation v is shown in FIG. 3 as a function of o-dianisidine concentration for both reactions catalyzed by mesohemin alone (open squares) and reactions catalyzed by the antibody-mesohemin complex (filled squares).
Saturation kinetics for the o-dianisidine peroxidation reaction were determined at an o-dianisidine concentration of 0.6 mM, with the remaining reaction conditions as described above. Lineweaver-Burk plots are shown in FIG. 4 for both free mesohemin (open squares) and antibody-mesohemin complex (filled squares) as a function of H2 O2 concentrations. The rates shown are based on an estimated molar extinction coefficient (ε) of 7500 for oxidized o-dianisidine.

[5] = tested on: antibody 7G12-A10-G1-A12 plus 1 μM Fe(III)-mesoporphyrin; test: Oxidation of pyrogallol, absorption at 420 nm monitored over time (FIG. 1); settings: 5 μM NMMP
Procedure: In one experiment, the antibody was used for oxidation of pyrogallol as determined spectrometrically by monitoring […]. The reaction was as follows: [drawing 6] The product has a maximum absorption at 420 nm.
(a) 1 μM Fe(III)-mesoporphyrin only;
(c) the antibody plus 1 μM Fe(III)-mesoporphyrin and 5 μM NMMP; and
(d) the antibody plus 1 μM Fe(III)-mesoporphyrin only.

[6] = peroxidation of the named reducing substrate by the antibody-mesohemin complex

Cc1ncc(CO)c(CNC(Cc2ccc([N+](=O)[O-])cc2)C(=O)O)c1O (stereo not shown) [Schiff base analog]
inhibition of transamination [1]: noticeably inhibited | inhibition of transamination [2]: noticeably inhibited

iron(III)mesoporphyrin
pKi [3]: > 8.00

Oc1cccc(O)c1O [pyrogallol]
Kcat /Km [4, 6]: 122 M⁻¹ s⁻¹

CCn1c(=NN=c2sc3cc(S(=O)(=O)O)ccc3n2CC)sc2cc(S(=O)(=O)O)ccc21 [2,2'-azinobis(3-ethylbenzothiazoline-6-sulfonic acid)]
Kcat /Km [4, 6]: 233 M⁻¹ s⁻¹

OO [H2 O2, hydrogen peroxide]
Km ([4]; o-dianisidine peroxidation, 0.6 mM o-dianisidine, H2O2 concentration varied (Lineweaver-Burk, FIG. 4), pH 8.0, 10° C.): 24 mM | Kcat /Km ([4]; o-dianisidine peroxidation, 0.6 mM o-dianisidine, H2O2 concentration varied, pH 8.0, 10° C.): 274 m^-1 s^-1 | kcat ([4]; o-dianisidine peroxidation, 0.6 mM o-dianisidine, H2O2 concentration varied, pH 8.0, 10° C., ε estimated 7500): 6.57 s⁻¹

N-Methyl mesoporphyrin [NMMP]
effect of hapten on antibody catalysis of peroxidation ([4]; hapten in a stoichiometric amount relative to antibody binding sites, each of the four reactions): completely blocked antibody catalysis | effect of NMMP on the pyrogallol oxidation rate [5]: destroying the catalytic effect
